Reference: publication PMC8370991, “Structural basis for the inhibition of HTLV-1 integration inferred from cryo-EM deltaretroviral intasome structures” (Nature Communications, 2021)
Where two headings read alike, the source gives them in different places.

Experiments:
HTLV-1 [1] = experiment: Alu-qPCR of integrated provirus in HTLV-1 infected Jurkat cells; format: cell-based; conditions: normalized to GAPDH
Experimental: (§1) The HTLV-1 cell-to-cell infection was performed as previously described; Jurkat T cells were counted and diluted in complete RPMI to a final concentration of 0.25 × 10^6 cells/ml and pre-treated with INSTI drugs (final concentration ranging from 0.2 pM to 2 μM) or DMSO as a control for 24 h. MT-2 cells were resuspended in RPMI at a concentration of 2 × 10^6 cells/ml and subjected to a nonlethal γ-radiation dose of 400 Gy. Cells were resuspended at a concentration of 2 × 10^6 cells/ml in serum-free RPMI supplemented with the corresponding INSTI drug. Co-culture of 0.5 × 10^6 for each cell line was carried out for 16 h, after which cells were washed in PBS and resuspended in 1 ml of depletion buffer (PBS, 0.1% FBS and 2 mM EGTA). MT-2 cells were depleted from the culture by means of anti-CD25 magnetic beads (DynabeadsTM CD25, Thermo Fisher). Depletion efficiency was confirmed via flow cytometry as described previously. Jurkat cells were cultured for 2 weeks in complete RPMI supplemented with the drugs and genomic DNA was extracted (DNeasy kit, Qiagen) and stored at −20 °C for subsequent analysis. All the experiments were done in triplicate.
The PVL was measured as previously described[9],[53],[54]. Jurkat genomic DNA was quantified and diluted to a concentration of 5 ng/μL. Real-time qPCR analysis were conducted on 20 ng of gDNA to measure the level of HTLV-1 tax and gapdh genes (Supplementary Table 5). For the standard curve, the gDNA from an HTLV-1 naturally infected T-cell clone (clone 11.50, courtesy of professor Charles Bangham), which has one copy of tax and two of gapdh, was used. The integrated provirus copy number was calculated as follows: (tax copy numbers)/(2×gapdh copy number)[53], and normalised to the DMSO-treated control which was set to 100%. The PVL data were fitted to a dose–response curve in Prism 7 and the EC50 was calculated. Alu-PCR was performed as previously described in ref. [55]. In brief, the first PCR reaction was done with Phusion polymerase starting from 80 ng of gDNA using the ALU-specific primers (Alu-F/Gag-R). The nested PCR was run diluting the amplificated product 1:50. The reaction was done as a qPCR using Gag-specific primers (Gag-R/Gag-F) and the Luna SYBR dye reaction mix (New England Biolabs). The integrated provirus copy numbers were normalised to GAPDH and Jurkat cells treated with DMSO and infected with HTLV-1 were set to 100%. Experiments were done in triplicate. […]
Supplementary Figure 6 | Integrated provirus was quantified by Alu-qPCR.
Values were normalized to GAPDH. Uninfected represents uninfected Jurkat cells, acting as negative control. Condition without any drug present (DMSO) was set as 100%. Mean values and standard deviations are shown for n = three biologically independent experiments. P-values were calculated with respect to the DMSO control using the unpaired t-test with Welch’s correction in Prism 9. P-values are two-sided.

HIV-1 = conditions: cited from earlier work
HTLV-1 [2] = experiment: MT-2-Jurkat cell-to-cell HTLV-1 infection, proviral load by qPCR; format: cell-based
Experimental: Six of the most promising compounds were selected for assessment of their efficacy in inhibiting HTLV-1 viral infection. To this end, we employed an MT-2-Jurkat co-culture relying on cell-to-cell-based HTLV-1 transmission, which we successfully used in a previous study. In this assay format, the infection of Jurkat cells is measured via real-time quantitative PCR (qPCR) determination of the proviral load (PVL). […] A block in the integration reaction was confirmed by Alu-qPCR experiments (Supplementary Fig. 6). […] We suspect this is owing to a more efficient uptake of BIC than RAL by Jurkat T cells.
MT-2 and E6.1 Jurkat T-cell lines (ATCC) were used for the experiments. The cells were cultured at 37 °C with 5% CO2 and maintained in Roswell Park Memorial Institute (RPMI) media supplemented with 10% fetal bovine serum (FBS), 100 U penicillin, 100 μg/mL streptomycin and 0.25 μg/mL fungizone.
as §1
The PVL was measured as previously described[9],[53],[54]. Jurkat genomic DNA was quantified and diluted to a concentration of 5 ng/μL. Real-time qPCR analysis were conducted on 20 ng of gDNA to measure the level of HTLV-1 tax and gapdh genes (Supplementary Table 5). For the standard curve, the gDNA from an HTLV-1 naturally infected T-cell clone (clone 11.50, courtesy of professor Charles Bangham), which has one copy of tax and two of gapdh, was used. The integrated provirus copy number was calculated as follows: (tax copy numbers)/(2×gapdh copy number)[53], and normalised to the DMSO-treated control which was set to 100%. The PVL data were fitted to a dose–response curve in Prism 7 and the EC50 was calculated. Alu-PCR was performed as previously described in ref. [55]. In brief, the first PCR reaction was done with Phusion polymerase starting from 80 ng of gDNA using the ALU-specific primers (Alu-F/Gag-R). The nested PCR was run diluting the amplificated product 1:50. The reaction was done as a qPCR using Gag-specific primers (Gag-R/Gag-F) and the Luna SYBR dye reaction mix (New England Biolabs). The integrated provirus copy numbers were normalised to GAPDH and Jurkat cells treated with DMSO and infected with HTLV-1 were set to 100%. Experiments were done in triplicate.

[3] = previously reported, read-out: EC50, infection by wild-type HIV-1
[4] = HTLV-1 infection of Jurkat T cells
[5] = MT-2-Jurkat cell-to-cell infection, proviral load, n = 3, read-out: HTLV-1 EC50 ± stdev
[6] = Replicate 1, read-out: HTLV-1 infection EC50
[7] = Replicate 2, read-out: HTLV-1 infection EC50
[8] = Replicate 3, read-out: HTLV-1 infection EC50

## Nc1c(C(=O)NCc2ccc(F)cc2F)c(=O)n(O)c2ncc(CCC(=O)NCCO)cc12 [XZ448, 4-amino-N-(2,4-difluorobenzyl)-1-hydroxy-6-(3-((2-hydroxyethyl)amino)-3-oxopropyl)-2-oxo-1,2-dihydro-1,8-naphthyridine-3-carboxamide]
HTLV-1 [1]; Replicate 1
  Integrated provirus by Alu-qPCR (DMSO = 100%): 25.215%
HTLV-1 [1]; Replicate 2
  Integrated provirus by Alu-qPCR (DMSO = 100%): 64.5778%
HTLV-1 [1]; Replicate 3
  Integrated provirus by Alu-qPCR (DMSO = 100%): 27.0471%
HIV-1; [3]
  EC50: 263 ± 52 nM
HTLV-1 [2]; [4]
  lower activity in blocking HTLV-1 infection compared with RAL: ~ 20 fold
HTLV-1 [2]; [5]
  EC50: 139 ± 81 nM
HTLV-1 [2]; [6]
  EC50: 125 nM
HTLV-1 [2]; [7]
  EC50: 146 nM
HTLV-1 [2]; [8]
  EC50: 116 nM

## Nc1c(C(=O)NCc2ccc(F)cc2F)c(=O)n(O)c2ncc(CCS(=O)(=O)c3ccccc3)cc12 [XZ446, 4-amino-N-(2,4-difluorobenzyl)-1-hydroxy-2-oxo-6-(2-(phenylsulfonyl)ethyl)-1,2-dihydro-1,8-naphthyridine-3-carboxamide]
HTLV-1 [1]; Replicate 1
  Integrated provirus by Alu-qPCR (DMSO = 100%): 13.9354%
HTLV-1 [1]; Replicate 2
  Integrated provirus by Alu-qPCR (DMSO = 100%): 1.128%
HTLV-1 [1]; Replicate 3
  Integrated provirus by Alu-qPCR (DMSO = 100%): 3.891%
HIV-1; previously reported, read-out: EC50, inhibitory potency for HIV-1
  EC50: 2 ± 0.1 nM
HTLV-1 [2]; [4]
  improvement in EC50 compared with RAL: ~2.5- to fivefold and two- to fivefold
HTLV-1 [2]; [5]
  EC50: 2.57 ± 0.81 nM
HTLV-1 [2]; [6]
  EC50: 3.46 nM
HTLV-1 [2]; [7]
  EC50: 2.16 nM
HTLV-1 [2]; [8]
  EC50: 1.94 nM

## Nc1c(C(=O)NCc2ccc(F)cc2F)c(=O)n(O)c2ncc(CCCO)cc12 [XZ423, 4-amino-N-(2,4-difluorobenzyl)-1-hydroxy-6-(3-hydroxypropyl)-2-oxo-1,2-dihydro-1,8-naphthyridine-3-carboxamide]
HTLV-1 [1]; Replicate 1
  Integrated provirus by Alu-qPCR (DMSO = 100%): 2.519%
HTLV-1 [1]; Replicate 2
  Integrated provirus by Alu-qPCR (DMSO = 100%): 0.166%
HTLV-1 [1]; Replicate 3
  Integrated provirus by Alu-qPCR (DMSO = 100%): 0.06882%
HIV-1; HIV-1 infection model, supplementary ref 1, read-out: HIV-1 EC50 ± stdev
  EC50: 3.1 ± 2 nM
HTLV-1 [2]; [5]
  EC50: 4.11 ± 1.52 nM
HTLV-1 [2]; [6]
  EC50: 3.95 nM
HTLV-1 [2]; [7]
  EC50: 3.49 nM
HTLV-1 [2]; [8]
  EC50: 1.75 nM

## CN(C)C(=O)CCc1cnc2c(c1)c(N)c(C(=O)NCc1ccc(F)cc1F)c(=O)n2O [XZ450, 4-amino-N-(2,4-difluorobenzyl)-6-(3-(dimethylamino)-3-oxopropyl)-1-hydroxy-2-oxo-1,2-dihydro-1,8-naphthyridine-3-carboxamide]
HTLV-1 [1]; Replicate 1
  Integrated provirus by Alu-qPCR (DMSO = 100%): 0.2536%
HTLV-1 [1]; Replicate 2
  Integrated provirus by Alu-qPCR (DMSO = 100%): 0.5264%
HTLV-1 [1]; Replicate 3
  Integrated provirus by Alu-qPCR (DMSO = 100%): 0.2229%
HIV-1; [3]
  EC50: 5 ± 1.3 nM
HTLV-1 [2]; [4]
  improvement in EC50 compared with RAL: ~2.5- to fivefold and two- to fivefold
HTLV-1 [2]; Primate T-lymphotropic virus 1, read-out: HTLV-1 EC50 ± stdev, MT-2-Jurkat cell-to-cell infection, proviral load, n = 3
  EC50: 1.67 ± 1.52 nM
HTLV-1 [2]; Primate T-lymphotropic virus 1, read-out: HTLV-1 infection EC50, Replicate 1
  EC50: 2.34 nM
HTLV-1 [2]; Primate T-lymphotropic virus 1, read-out: HTLV-1 infection EC50, Replicate 2
  EC50: 1.89 nM
HTLV-1 [2]; Primate T-lymphotropic virus 1, read-out: HTLV-1 infection EC50, Replicate 3
  EC50: 1.25 nM

## CC(C)n1c(C(=O)N(C)C)c2c(c(O)c1=O)C(=O)N(Cc1ccc(F)c(Cl)c1)CC2 [XZ236, 6-(3-chloro-4-fluorobenzyl)-4-hydroxy-2-isopropyl-N,N-dimethyl-3,5-dioxo-2,3,5,6,7,8-hexahydro-2,6-naphthyridine-1-carboxamide, reference compound]
HTLV-1 [1]; Replicate 1
  Integrated provirus by Alu-qPCR (DMSO = 100%): 4.2364%
HTLV-1 [1]; Replicate 2
  Integrated provirus by Alu-qPCR (DMSO = 100%): 4.296%
HTLV-1 [1]; Replicate 3
  Integrated provirus by Alu-qPCR (DMSO = 100%): 2.243%
HIV-1; HIV-1 infection model, supplementary ref 7, read-out: HIV-1 EC50 ± stdev
  EC50: 17 ± 4 nM
HTLV-1 [2]; [5]
  EC50: 3.74 ± 1.42 nM
HTLV-1 [2]; [6]
  EC50: 5.38 nM
HTLV-1 [2]; [7]
  EC50: 1.48 nM
HTLV-1 [2]; [8]
  EC50: 4.41 nM
